Data on six compounds can be found in ChEMBL document CHEMBL5365441, “Novel Foscan®-derived ring-fused chlorins for photodynamic therapy of cancer” (Bioorg Med Chem, 2023).

SMILES strings stand for the structures. A value given as a limit tells only on which side of the number the result lay.

A short description of series [1]: Drug distribution in endoplasmic reticulum of human U2OS cells expressing CALR-GFP assessed as increase in fluorescence intensity at 5 uM incubated for 24 hrs by Hoechst staining based confocal microscopic analysis. The series is classed as ADME, subcellular.
Series [2] can be described thus: Cytotoxicity against mouse NIH/3T3 cells assessed as reduction in cell viability incubated for 24 hrs under dark condition by resazurin reduction assay. The series is classed as toxicity, cell-based, NIH3T3.
A short description of series [3]: Drug internalization in mouse NIH/3T3 cells at 2.5 uM by flow cytometry analysis. In kind it is ADME, cell-based. The following applies: nih3t3, 2.5 µM, TDE = time-dependent effect, time 3-24 hrs. A general note: A flow cytometer gives signals particle by particle.
The nature of series [4]: Photostability of compound in DMSO assessed as photodecomposition quantum yield. In kind it is physicochemical.
Series [5] in a line: Drug distribution in golgi body of human U2OS cells expressing GALT1-GFP assessed as increase in fluorescence intensity at 5 uM incubated for 24 hrs by Hoechst staining based confocal microscopic analysis. The series is classed as ADME, subcellular.
Series [6] relates to MDA-MB-231. Put plainly: Photocytotoxicity against human MDA-MB-231 cells assessed as reduction in cell viability preincubated for 24 hrs followed by washout and 1 J/cm2 light irradiation for 24 hrs by resazurin reduction assay. The series is classed as functional, cell-based. The following applies: MDA-MB-231, light or radiation study. In general terms: The colour change of resazurin is a common sign of viable cells or microbes.

Series [7] concerns MDA-MB-231. Put plainly: Cytotoxicity against human MDA-MB-231 cells assessed as reduction in cell viability incubated for 24 hrs under dark condition by resazurin reduction assay. The series is classed as functional, cell-based. The settings on record: MDA-MB-231, 24 h.
Series [8] in a line: Induction of singlet oxygen production in EtOH assessed as singlet oxygen quantum yield by SOSG reagent based assay. The series is classed as functional.
The nature of series [9]: Emission property of compound in DMSO assessed as fluorescence quantum yield. In kind it is physicochemical.
The nature of series [10]: Drug internalization in human MDA-MB-231 cells at 2.5 uM by flow cytometry analysis. The series is classed as ADME, cell-based. The following applies: mda-mb-231, 2.5 µM, TDE = time-dependent effect, time 3-24 hrs.
Series [11] is described as follows: Photocytotoxicity against mouse NIH/3T3 cells assessed as reduction in cell viability preincubated for 24 hrs followed by washout and 1 J/cm2 light irradiation for 24 hrs by resazurin reduction assay. The series is classed as toxicity, cell-based, NIH3T3.
Series [12] concerns MDA-MB-231. Description: Phototherapeutic index, ratio of IC50 for cytotoxicity against human MDA-MB-231 cells under dark condition to IC50 for photocytotoxicity against human MDA-MB-231 cells in presence of 1 J/cm2 light irradiation. The series is classed as functional.

With `OCc1cc2n(n1)CC1c3nc(c(-c4cccc(O)c4)c4ccc([nH]4)c(-c4cccc(O)c4)c4nc(c(-c5cccc(O)c5)c5ccc([nH]5)c3-c3cccc(O)c3)C=C4)C1C2` (centres undefined), the Drug uptake entry in series [1] is recorded as “Active”; in series [3], “Tde”; in series [5], “Active”; in [10], “Tde”. For the same compound, in series [2], the IC50 (as a rule, the concentration that inhibits the measured activity by half) at 24 h was above 10000 nM. Also, the Activity is 52.7 10^-6No_unit in [4], 0.5 in series [8] and 0.1 in series [9]. In addition, the IC50 in [6] was determined as 86.3 nM; in series [7], 7740 nM; in series [11], 107 nM. In [12], the “Ratio IC50” value came to 93.37.
With `COC(=O)c1cc2n(n1)CC1c3nc(c(-c4cccc(O)c4)c4ccc([nH]4)c(-c4cccc(O)c4)c4nc(c(-c5cccc(O)c5)c5ccc([nH]5)c3-c3cccc(O)c3)C=C4)C1C2` (centres undefined), in series [2], the IC50 at 24 h was above 10000 nM. The Drug uptake entry in series [3] and in series [10] was “Tde” each time. Moreover, the Activity in [4] is 60.8 10^-6No_unit; in series [8], 0.53; in series [9], 0.11. The IC50 turned out to be 138 nM in [6], 7740 nM in series [7] and 109 nM in series [11]. Also, the “Ratio IC50” value in [12] stood at 56.27.
Consider `[N-]=[N+]=NCc1cc2n(n1)CC1c3nc(c(-c4cccc(O)c4)c4ccc([nH]4)c(-c4cccc(O)c4)c4nc(c(-c5cccc(O)c5)c5ccc([nH]5)c3-c3cccc(O)c3)C=C4)C1C2` (centres undefined), for which, in series [2], the 50% inhibitory concentration (IC50) at 24 h came to 10600 nM. The Drug uptake result in series [3] and in [10] was “Tde” throughout. In addition, the Activity in series [4] is 60.8 10^-6No_unit; in [8], 0.47; in series [9], 0.12. The IC50 in [6] came out at 106 nM; in [7] it was 15800 nM; in series [11] it was 93.1 nM. Further, the “Ratio IC50” value in series [12] is reported as 149.7.
In the case of `OCc1nn2c(c1CO)CC1c3nc(c(-c4cccc(O)c4)c4ccc([nH]4)c(-c4cccc(O)c4)c4nc(c(-c5cccc(O)c5)c5ccc([nH]5)c3-c3cccc(O)c3)C=C4)C1C2` (centres undefined), the half-inhibitory concentration (IC50) at 24 h in series [2] was above 10000 nM. For the same compound, the Drug uptake entry in series [3] and in series [10] was “Tde” throughout. Moreover, the Activity in series [4] is 54.8 10^-6No_unit; in [8], 0.49; in series [9] it was 0.1. Besides, the IC50 worked out at 309 nM in [6], 11400 nM in [7] and 343 nM in series [11]. In [12], the “Ratio IC50” value was determined as 37.
Turning to `COC(=O)c1cc2n(n1)CC1c3nc(c(-c4cccc(OC(C)=O)c4)c4ccc([nH]4)c(-c4cccc(OC(C)=O)c4)c4nc(c(-c5cccc(OC(C)=O)c5)c5ccc([nH]5)c3-c3cccc(OC(C)=O)c3)C=C4)C1C2` (centres undefined), the Drug uptake entry is “Not Active” in series [1], “Tde” in series [3], “Not Active” in series [5] and “Tde” in series [10]. In series [2], the IC50 at 24 h is above 10000 nM. Also, the results for the Activity in series [4], in series [8] and in [9] were 66.9 10^-6No_unit, 0.45 and 0.11, respectively. In addition, the IC50 was 1.3 nM in [6], above 10000 nM in [7] and 617 nM in [11].
Regarding `Oc1cccc(-c2c3nc(c(-c4cccc(O)c4)c4ccc([nH]4)c(-c4cccc(O)c4)c4nc(c(-c5cccc(O)c5)c5ccc2[nH]5)C=C4)C=C3)c1`, the IC50 at 24 h in series [2] was found to be 9160 nM. Further, the Drug uptake result in series [3] and in series [10] was “Tde” each time. Moreover, the results for the IC50 in series [6], in [7] and in [11] were 25.7 nM, 3310 nM and 12.5 nM, respectively.
